Several values for one entry are separate records, joined by “and”; a condition that tells them apart may be missing. Identical values can stand only once. Positions of bridges follow the written chain, without caps; N, C: chain ends. Non-standard residues stand in square brackets, D forms with d. Residues, ends and D or L forms follow the SMILES beside them. *: point of attachment. FITC = O=C1OC2(c3ccc(O)cc3Oc3cc(O)ccc32)c2ccc(NC(=S)*)cc21; R8 = C=CCCCCCC[C@@](C)(N)C(=O)O; S5 = C=CCCC[C@](C)(N)C(=O)O; AEEA = NCCOCCOCC(=O)O
Columns and labels:
proteinase K = proteinase K (Parengyodontium album, UniProt P06873); assay: Protease stability assay; type: in vitro ADME; details: for Half-life (t1/2): proteinase K 10 μg·ml^−1, fluorescein-labeled peptide 50 μM, 10 mM Tris pH 8.0, 150 mM NaCl, room temperature, HPLC absorbance 210 nm, exponential decay fit
proteinase K, sequence (P06873 106-384): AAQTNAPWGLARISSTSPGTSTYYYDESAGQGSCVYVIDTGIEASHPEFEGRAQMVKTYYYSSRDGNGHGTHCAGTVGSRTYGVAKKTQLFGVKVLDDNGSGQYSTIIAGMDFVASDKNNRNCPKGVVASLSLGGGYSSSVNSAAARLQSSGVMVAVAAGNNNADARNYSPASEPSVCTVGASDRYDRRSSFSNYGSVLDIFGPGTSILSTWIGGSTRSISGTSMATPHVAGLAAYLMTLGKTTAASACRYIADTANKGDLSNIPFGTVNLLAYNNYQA

ds pal-RNA = assay: EMSA with ds pal-RNA; type: binding; details: fluorescein-labeled peptide 6 μM, RNA 3 μM, 10% native PAGE, 4°C
Description: Electrophoretic mobility shift assays (EMSAs) were performed using a Bio-Rad Mini-Protean gel system paired with a direct current (DC) power source (PowerPac™ HC, Bio-Rad). Typically, 6 μl solutions containing ds RNA (c = 3 μM) and fluorescein-labeled peptide (c = 6 μM) were incubated in binding buffer (10 mM Tris (pH 8.0), 0.5 mM EDTA, 12.5% glycerol and 150 mM KCl) at 4°C for 1 h. After incubation, bound RNA was resolved from peptide-free RNA using 10% non-denaturing polyacrylamide gels at 120 V in running buffer (25 mM Tris (pH 8.0), 200 mM glycine, 20 mM NaCl) at 4°C for 1 h. Visualization of fluorescent gel-bound species was conducted using a Typhoon Trio + fluorescence scanner (GE Healthcare Life Sciences). For nucleic acid visualization, gels were stained using 2 μl of SYBR™ gold nucleic acid gel dye (Molecular Probes) in 20 ml of TAE buffer (40 mM Tris, 1 mM EDTA, 20 mM acetic acid) for 45 min at RT before being visualized using a FluorChem™ gel documentation system (Alpha Innotech). To assess B3 binding to different ds RNA sequences (Supplementary Figure S20), 6 μl solutions containing hairpin RNA (c = 1 μM) and fluorescein-labeled B3 (c = 2 μM) were incubated in binding buffer (TAE and 10% glycerol) at RT for 1 h, and then resolved using 15% non-denaturing polyacrylamide gels (acrylamide/bis-acrylamide (19:1) in TAE) at 150 V in running buffer (TAE) at 4°C for 1.5 h. Visualization of fluorescent gel-bound species was conducted using a Bio-Rad ChemiDoc (Bio-Rad). Subsequently, gels were stained with SYBR™ gold nucleic acid gel dye (Invitrogen) as described above and visualized using the same imaging system. To assess B3 binding to pre–miR-21 (Supplementary Figure S24), the RNA was prepared at a fixed concentration (c = 1 μM) and incubated with varying concentrations of fluorescein-labeled B3 (c = 0–5 μM) in binding buffer (TAE and 10% glycerol) at RT for 1 h. After incubation, bound nucleic acid complexes were resolved using 15% non-denaturing polyacrylamide gels (acrylamide/bis-acrylamide (19:1) in TAE) at 150 V in running buffer (TAE) at 4°C for 1.5 h, followed by visualization and staining with SYBR™ gold nucleic acid gel dye (Invitrogen).

miR-21 duplex = assay: Thermal denaturation of miR-21 duplex (CD melting); type: binding; details: miR-21 2 μM, unlabeled peptide 4 μM
Description: For each sample, 10 CD spectra were measured between λ = 200 and 350 nm with continuous scan mode (1 mdeg sensitivity, 1.0 nm resolution, 1.0 nm bandwidth, 2 s integration time, 100 nm·min^−1 scan rate). Obtained spectra were averaged and then subtracted from a reference buffer spectrum. CD data were normalized to oligonucleotide strand concentration using Formula (1):(1) where θ = observed ellipticity (mdeg), c = DNA strand concentration (mol·l^−1) and l = path length (cm).
Melting temperature (Tm) determination was conducted using the same instrumentation and sample preparation, where ellipticity (θ = 267 nm) was measured by ramping the temperature from 15–90°C (4°C·min^−1 ramp, ±0.05°C equilibration tolerance, 6 s delay after equilibration). Data points were recorded every 0.5°C. Raw data was normalized as described above and Tm-values were determined using the CDpal program ([44]) before being plotted in Prism 5.0 (GraphPad).

[1] = CD spectroscopy, secondary structure content; type: physicochemical; details: fluorescein-labeled peptide 75 μM, 10 mM sodium phosphate pH 7.4, CDNN/PEPFIT; for Helix (α-helicity): unbound

Row | SMILES | Half-life (t1/2) (proteinase K) [h] | binding to ds pal-RNA in EMSA (ds pal-RNA) | ΔTm of miR-21 duplex (miR-21 duplex) | Random coil [1] [%] | β-Sheet [1] [%] | β-Turn [1] [%] | Helix (α-helicity) [1] | fold increased stability compared to wt33 (proteinase K; proteinase K, fluorescein-labeled peptides) [fold]
1 | CC(C)C[C@@H]1NC(=O)[C@H](CCC(=O)O)NC(=O)[C@H](CO)NC(=O)[C@@](C)(NC(=O)[C@H](CCCNC(=N)N)NC(=O)[C@H](CCC(N)=O)NC(=O)[C@H](CCC(=O)O)NC(=O)[C@H](CO)NC(=O)[C@@H]2CCCN2C(=O)[C@H](CO)NC(=O)[C@H](CCCCN)NC(=O)[C@H](Cc2c[nH]cn2)NC(=O)[C@]2(C)CCCC=CCCCCCC[C@@](C)(NC(=O)[C@H](Cc3c[nH]cn3)NC(=O)[C@H](CCCNC(=N)N)NC(=O)[C@H](CCCCN)NC(=O)[C@H](CCCNC(=N)N)NC(=O)[C@H](CCC(N)=O)NC(=O)[C@H](C)NC(=O)[C@H](CCC(N)=O)NC(=O)[C@H](CCCCN)NC(=O)[C@H](CCCCN)NC(=O)COCCOCCNC(=S)Nc3ccc4c(c3)C(=O)OC43c4ccc(O)cc4Oc4cc(O)ccc43)C(=O)N[C@@H](CC(C)C)C(=O)N[C@@H](CC(N)=O)C(=O)N[C@@H](CCCNC(=N)N)C(=O)N[C@@H](CCCCN)C(=O)N[C@@H](CCC(=O)O)C(=O)N[C@@H](CCCNC(=N)N)C(=O)N2)CCCC=CCCC[C@@](C)(C(=O)N[C@@H](Cc2c[nH]cn2)C(=O)N[C@@H](C)C(=O)N[C@@H](CCCNC(=N)N)C(N)=O)NC1=O [D1] ({FITC-AEEA}-KKQAQRKRH[R8]LNRKER[S5]HKSPSEQR[S5]SEL[S5]HAR-NH2; staple 10-17, 26-30) | 4.65 | does not bind to ds pal-RNA | only showed a mild effect on duplex stability | 31.2 | 12.0 | 9.9 | 48.5% | 
2 | CC(C)C[C@H](NC(=O)[C@]1(C)CCCC=CCCC[C@](C)(NC(=O)[C@H](CCC(=O)O)NC(=O)[C@H](CO)NC(=O)[C@@H]2CCCN2C(=O)[C@H](CO)NC(=O)[C@H](CCCCN)NC(=O)[C@H](Cc2c[nH]cn2)NC(=O)CNC(=O)[C@H](CCCNC(=N)N)NC(=O)[C@]2(C)CCCC=CCCC[C@](C)(NC(=O)[C@H](CCCCN)NC(=O)[C@H](Cc3c[nH]cn3)NC(=O)[C@H](CCCNC(=N)N)NC(=O)[C@H](CCCCN)NC(=O)[C@H](CCCNC(=N)N)NC(=O)[C@H](CCC(N)=O)NC(=O)[C@H](C)NC(=O)[C@H](CCC(N)=O)NC(=O)[C@H](CCCCN)NC(=O)[C@H](CCCCN)NC(=O)COCCOCCNC(=S)Nc3ccc4c(c3)C(=O)OC43c4ccc(O)cc4Oc4cc(O)ccc43)C(=O)N[C@@H](CC(N)=O)C(=O)N[C@@H](CCCNC(=N)N)C(=O)N[C@@H](CCCCN)C(=O)N2)C(=O)N[C@@H](CCCNC(=N)N)C(=O)N[C@@H](CCCNC(=N)N)C(=O)N[C@@H](CO)C(=O)N1)C(=O)N[C@@H](Cc1c[nH]c2ccccc12)C(=O)N[C@@H](Cc1c[nH]cn1)C(=O)N[C@@H](C)C(=O)N[C@@H](CCCNC(=N)N)C(N)=O [B3] ({FITC-AEEA}-KKQAQRKRHK[S5]NRK[S5]RGHKSPSE[S5]RRS[S5]LWHAR-NH2; staple 11-15, 24-28) | 6.18 | full disappearance of the ds pal-RNA band | > 10 °C | 9.3 | 2.0 | 13.9 | 85.0% and 82–85% | 
3 | CC(C)C[C@@H]1NC(=O)[C@@](C)(NC(=O)[C@H](CO)NC(=O)[C@H](CCCNC(=N)N)NC(=O)[C@H](CCCNC(=N)N)NC(=O)[C@H](CCC(N)=O)NC(=O)[C@H](CCC(=O)O)NC(=O)[C@H](CO)NC(=O)[C@@H]2CCCN2C(=O)[C@H](CO)NC(=O)[C@H](CCCCN)NC(=O)[C@H](Cc2c[nH]cn2)NC(=O)CNC(=O)[C@H](CCCNC(=N)N)NC(=O)[C@H](CCC(=O)O)NC(=O)[C@H](CCCCN)NC(=O)[C@H](CCCNC(=N)N)NC(=O)[C@H](CC(N)=O)NC(=O)[C@]2(C)CCCC=CCCCCCC[C@@](C)(NC(=O)[C@H](CCC(N)=O)NC(=O)[C@H](CCCCN)NC(=O)[C@H](CCCCN)NC(=O)COCCOCCNC(=S)Nc3ccc4c(c3)C(=O)OC43c4ccc(O)cc4Oc4cc(O)ccc43)C(=O)N[C@@H](CCC(N)=O)C(=O)N[C@@H](CCCNC(=N)N)C(=O)N[C@@H](CCCCN)C(=O)N[C@@H](CCCNC(=N)N)C(=O)N[C@@H](Cc3c[nH]cn3)C(=O)N[C@@H](CCCCN)C(=O)N2)CCCC=CCCC[C@@](C)(C(=O)N[C@@H](CCCNC(=N)N)C(N)=O)NC(=O)[C@H](Cc2c[nH]cn2)NC(=O)[C@H](Cc2c[nH]c3ccccc23)NC1=O [C1] ({FITC-AEEA}-KKQ[R8]QRKRHK[S5]NRKERGHKSPSEQRRS[S5]LWH[S5]R-NH2; staple 4-11, 28-32) | 10.6 | full disappearance of the ds pal-RNA band | > 10 °C | 47.0 | 0.2 | 1.8 | 81.5% and 82–85% | 265

Reference: article PMC8682738, “Constrained peptides mimic a viral suppressor of RNA silencing” (Nucleic Acids Research, 2021)
